ChEMBL document CHEMBL1201862, “PubChem BioAssay data set” (2004)
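All cell lines were grown in 96-well plates and treated with compound for 48 hours. The concentration for 50% growth inhibition is given as GI50.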 The source made the active and inactive calls. Rule as the data show it: active = GI50 up to about 1.1 µM and inactive = higher.

What was measured:
Assay in all cases: NCI anticancer screen, dose series, 48 h
[1] = test system: EKVX
[2] = test system: CCRF-CEM
[3] = test system: TK-10
[4] = test system: HCC 2998
[5] = test system: OVCAR-4
[6] = test system: T47D
[7] = test system: CAKI-1
[8] = test system: SF-295
[9] = test system: HOP-62
[10] = test system: COLO 205
[11] = test system: HOP-92
[12] = test system: A549
[13] = test system: NCI-H23
[14] = test system: K562
[15] = test system: SNB-19
[16] = test system: SF-539
[17] = test system: HCT-15
[18] = test system: DU-145
[19] = test system: HCT-116
[20] = test system: HL-60

SMILES | GI50 [1] | GI50 [2] | GI50 [3] | GI50 [4] | GI50 [5] | GI50 [6] | GI50 [7] | GI50 [8] | GI50 [9] | GI50 [10] | GI50 [11] | GI50 [12] | GI50 [13] | GI50 [14] | GI50 [15] | GI50 [16] | GI50 [17] [µM] | GI50 [18] | GI50 [19] | GI50 [20]
COc1ccc(Cn2c3c(cc(OS(=O)(=O)C(F)(F)F)c2=O)Cc2ccccc2-3)cc1 | 20.4 µM (inactive) | 6.27 µM (inactive) | 22.3 µM (inactive) | 11.7 µM (inactive) | 19.3 µM (inactive) | 32.3 µM (inactive) | 20.9 µM (inactive) | 18.9 µM (inactive) | 21.9 µM (inactive) | 9.95 µM (inactive) | 22.3 µM (inactive) | 16.5 µM (inactive) | 19.7 µM (inactive) | 21.5 µM (inactive) | 19.1 µM (inactive) | 10.3 µM (inactive) | 3.22 | 20.2 µM (inactive) | 14.9 µM (inactive) | 10.7 µM (inactive)
c1ccc(C2=NOC(c3ccccc3)N2C23CC4CC(CC(C4)C2)C3)cc1 (stereo not given) | > 10 µM (inactive) | > 10 µM (inactive) | > 10 µM (inactive) | > 10 µM (inactive) | > 10 µM (inactive) | > 10 µM (inactive) | > 10 µM (inactive) | > 10 µM (inactive) | > 10 µM (inactive) | > 10 µM (inactive) | > 10 µM (inactive) | > 10 µM (inactive) | > 10 µM (inactive) | > 10 µM (inactive) | > 10 µM (inactive) | > 10 µM (inactive) | > 10 | > 10 µM (inactive) | > 10 µM (inactive) | > 10 µM (inactive)
Oc1ccc2ccccc2c1-c1nnc(CCCCCCCCc2nnc(-c3c(O)ccc4ccccc34)o2)o1 | 4.05 µM (inactive) | 0.448 µM (active) | 9.42 µM (inactive) | 4.06 µM (inactive) | 1.15 µM (inactive) | 4 µM (inactive) | 0.813 µM (active) | 3.61 µM (inactive) | 1.59 µM (inactive) | 15.3 µM (inactive) | 9.82 µM (inactive) | 3.85 µM (inactive) | 5.21 µM (inactive) | 0.955 µM (active) | 3.53 µM (inactive) | 1.52 µM (inactive) | 0.815 | 5.08 µM (inactive) | 1.18 µM (inactive) | 0.319 µM (active)
CCOP(=O)(OCC)C(Nc1ccc(Cl)cc1)c1ccc(F)cc1 (stereo not given) | 29.2 µM (inactive) | 29.5 µM (inactive) | 42.7 µM (inactive) | 22 µM (inactive) | 36.2 µM (inactive) | 16.6 µM (inactive) | 22.3 µM (inactive) | 19.8 µM (inactive) | 19 µM (inactive) | 29.4 µM (inactive) | 22 µM (inactive) | 31 µM (inactive) | 16.3 µM (inactive) | 25.5 µM (inactive) | 26.7 µM (inactive) | 22 µM (inactive) | 26.7 | 24.5 µM (inactive) | 19.2 µM (inactive) | 18.6 µM (inactive)
CC(C)NCC(O)c1cc(OCc2ccccc2)c(OCc2ccccc2)cc1NC(=O)CCC(=O)O (stereo not given) | 12.4 µM (inactive) | 2.58 µM (inactive) | 7.53 µM (inactive) | 2.49 µM (inactive) | 11.5 µM (inactive) | 10 µM (inactive) | 8.75 µM (inactive) | 3.94 µM (inactive) | 13.7 µM (inactive) | 2.06 µM (inactive) | 4.78 µM (inactive) | 11.8 µM (inactive) | 13.2 µM (inactive) | 1.92 µM (inactive) | 12.6 µM (inactive) | 16.4 µM (inactive) | 3.24 | 13 µM (inactive) | 5.22 µM (inactive) | 3.15 µM (inactive)
Clc1ccc(-c2cc(-c3nc4ccccc4[nH]3)no2)cc1 | 16.9 µM (inactive) | 18.7 µM (inactive) | 21.9 µM (inactive) | 18.6 µM (inactive) | 17.7 µM (inactive) | 11.7 µM (inactive) | 18.3 µM (inactive) | 17.3 µM (inactive) | 19.5 µM (inactive) | 20 µM (inactive) | 33.7 µM (inactive) | 19.1 µM (inactive) | 18.9 µM (inactive) | 19.8 µM (inactive) | 19.6 µM (inactive) | 23.9 µM (inactive) | 19.6 | 11.4 µM (inactive) | 16.6 µM (inactive) | 7.4 µM (inactive)
CC(C)OP(=O)(OC(C)C)C(C(F)(F)F)C(F)(F)F | > 100 µM (inactive) | > 100 µM (inactive) | > 100 µM (inactive) | > 100 µM (inactive) | > 100 µM (inactive) | > 100 µM (inactive) | > 100 µM (inactive) | > 100 µM (inactive) | > 100 µM (inactive) | > 100 µM (inactive) | > 100 µM (inactive) | > 100 µM (inactive) | > 100 µM (inactive) | > 100 µM (inactive) | > 100 µM (inactive) | > 100 µM (inactive) | > 100 | > 100 µM (inactive) | > 100 µM (inactive) | > 100 µM (inactive)
O=NN(Cc1ccc(Cl)cc1)C(C(=O)O)c1ccccc1 (stereo not given) | > 100 µM (inactive) | > 100 µM (inactive) | > 100 µM (inactive) | 43.9 µM (inactive) | > 100 µM (inactive) | > 100 µM (inactive) | > 100 µM (inactive) | > 100 µM (inactive) | > 100 µM (inactive) | > 100 µM (inactive) | > 100 µM (inactive) | > 100 µM (inactive) | > 100 µM (inactive) | > 100 µM (inactive) | > 100 µM (inactive) | > 100 µM (inactive) | > 100 | > 100 µM (inactive) | > 100 µM (inactive) | > 100 µM (inactive)
O=C(/C=C/c1ccccc1)C[C@@H](O)C[C@@H]1CC=CC(=O)O1 | 17.1 µM (inactive) | 1.85 µM (inactive) | 14.9 µM (inactive) | 5.93 µM (inactive) | 15.2 µM (inactive) | 10.6 µM (inactive) | 14.2 µM (inactive) | 13.7 µM (inactive) | 16 µM (inactive) | 5.5 µM (inactive) | 3.88 µM (inactive) | 18.7 µM (inactive) | 8.95 µM (inactive) | 2.33 µM (inactive) | 15.9 µM (inactive) | 3.57 µM (inactive) | 10.2 | 17.2 µM (inactive) | 2.46 µM (inactive) | 2.18 µM (inactive)
Cc1nc(C)c(N2CCNCC2)c(O)n1 | > 100 µM (inactive) | > 100 µM (inactive) | > 100 µM (inactive) | > 100 µM (inactive) | > 100 µM (inactive) | > 100 µM (inactive) | > 100 µM (inactive) | > 100 µM (inactive) | > 100 µM (inactive) | > 100 µM (inactive) | > 100 µM (inactive) | > 100 µM (inactive) | > 100 µM (inactive) | > 100 µM (inactive) | > 100 µM (inactive) | > 100 µM (inactive) | > 100 | > 100 µM (inactive) | > 100 µM (inactive) | > 100 µM (inactive)
CCOC(=O)C(=CNC(=S)c1ccncc1)C(=O)OCC | > 100 µM (inactive) | > 100 µM (inactive) | > 100 µM (inactive) | > 100 µM (inactive) | > 100 µM (inactive) | > 100 µM (inactive) | > 100 µM (inactive) | > 100 µM (inactive) | > 100 µM (inactive) | > 100 µM (inactive) | > 100 µM (inactive) | > 100 µM (inactive) | > 100 µM (inactive) | > 100 µM (inactive) | > 100 µM (inactive) | > 100 µM (inactive) | > 100 | > 100 µM (inactive) | > 100 µM (inactive) | > 100 µM (inactive)
COc1ccc(NC(=O)CC(=O)N2N=C(N(c3ccccc3)c3ccccc3)CC2c2ccccc2)cc1 (stereo not given) | > 100 µM (inactive) | > 100 µM (inactive) | > 100 µM (inactive) | > 100 µM (inactive) | > 100 µM (inactive) | > 100 µM (inactive) | > 100 µM (inactive) | > 100 µM (inactive) | > 100 µM (inactive) | > 100 µM (inactive) | > 100 µM (inactive) | > 100 µM (inactive) | > 100 µM (inactive) | > 100 µM (inactive) | > 100 µM (inactive) | > 100 µM (inactive) | > 100 | > 100 µM (inactive) | > 100 µM (inactive) | > 100 µM (inactive)
COc1cc(C(=O)O)ccc1OS(=O)(=O)O | > 100 µM (inactive) | > 100 µM (inactive) | > 100 µM (inactive) | > 100 µM (inactive) | > 100 µM (inactive) | > 100 µM (inactive) | > 100 µM (inactive) | > 100 µM (inactive) | > 100 µM (inactive) | > 100 µM (inactive) | > 100 µM (inactive) | > 100 µM (inactive) | > 100 µM (inactive) | > 100 µM (inactive) | > 100 µM (inactive) | > 100 µM (inactive) | > 100 | > 100 µM (inactive) | > 100 µM (inactive) | > 100 µM (inactive)
CC(=O)[C@]1(O)Cc2c(O)c3c(c(O)c2C(OC2OC(C)C(O)C(O)C2F)C1)C(=O)c1ccccc1C3=O (stereo not given in full) | 0.61 µM (active) | < 0.0141 µM (active) | 0.197 µM (active) | 0.208 µM (active) | 0.914 µM (active) | 0.0395 µM (active) | 0.013 µM (active) | < 0.014 µM (active) | < 0.0189 µM (active) | 0.259 µM (active) | 0.055 µM (active) | 0.019 µM (active) | 0.0371 µM (active) | 0.083 µM (active) | < 0.0199 µM (active) | < 0.0402 µM (active) | 0.0516 | 0.0502 µM (active) | 0.0565 µM (active) | < 0.01 µM (active)
